Measured values published in publication PMC10121968, “Fosgonimeton, a Novel Positive Modulator of the HGF/MET System, Promotes Neurotrophic and Procognitive Effects in Models of Dementia” (Neurotherapeutics, 2022).
Non-standard residues stand in square brackets, D forms with d. Residues, ends and D or L forms follow the SMILES beside them. *: point of attachment. Hexanoyl = CCCCCC(=O)*; Ahx = NCCCCCC(=O)O

Assay: Simulated intestinal and gastric fluid stability
Assay type: in vitro ADME
Conditions: 1 h, 5 µM, 37 °C
Protocol: Simulated intestinal and gastric fluid studies were contracted to Quintara Discovery Inc, Hayward, California. Simulated intestinal fluid was freshly prepared with 8.7 mM NaOH, 28.65 mM NaH2PO4, 5.85 mM NaCl, with a final pH of 6.8. […] was added to a final concentration of 0.32%. Simulated gastric fluid was prepared with 34.2 mM NaCl. The pH was adjusted to 1.2, and […] was added to a final concentration of 1%. Fosgo-AM was added to the simulated fluids to achieve a concentration of 5 µM. After mixing, samples were transferred to 96-well plates in duplicate (25 μL/well) and incubated at 37 °C. At time 0, 1, 2, and 4 h, 150 μL quench solution (100% acetonitrile with 0.1% formic acid) and bucetin internal standard was added to the appropriate wells. Plates were sealed and centrifuged at 4 °C for 15 min at 4000 rpm. The supernatant was transferred to fresh plates for liquid chromatography/[…] mass spectrometry (LC/MS/MS) analysis. The extent of metabolism was calculated as the disappearance of the test compound compared with the time = 0 incubations.

remaining after exposure (simulated gastric fluid): 7.8% | remaining after exposure (simulated intestinal fluid): 0.1%
Structure (SMILES): CCCCCC(=O)N[C@@H](Cc1ccc(O)cc1)C(=O)N[C@H](C(=O)NCCCCCC(N)=O)[C@@H](C)CC [fosgo-AM] (Hexanoyl-Tyr-Ile-[Ahx]-NH2)
